According to patent US8575214B2, “MGlu 2/3 agonists” (Eli Lilly and Company, priority 2012, dated 2013):

What was measured:
[1] = 1 h, 10 µM, pH 7.4
Experimental: Frozen human duodenum intestinal homogenates (1:2 tissue:buffer ratio using 100 mM Tris Phosphate buffer, pH 7.4) are obtained from Celsius In Vitro Technologies (Baltimore, Md.) that were both phenylmethylsulphonylfluoride (PMSF) and EDTA free.
All original tissue collections are performed at 4° C. and immediately frozen at −70° C. Human intestinal homogenates are thawed and diluted to a final protein concentration of 0.5 mg/mL in 100 mM PBS buffer, pH 7.4 immediately prior to the incubations.
Incubations are conducted in 96-well plates and all prodrugs are run in duplicate on each day. Stock prodrug solutions are prepared in water at a concentration of 1 mM. A 200 μL aliquot of 0.5 mg/mL intestinal homogenate and 196 μL of 100 mM PBS buffer are placed in a 96-well plate in a 37° C. water bath. Using a 96-well pipettor, 4 μL of the 1 mM prodrug solution is transferred into the homogenate. Immediately after addition of the prodrug (time zero) and after 1 hour incubation, 50 μL samples of the incubation mixture are removed using an automated disposable simultaneous 96 well pipettor and added directly to 200 μL of methanol quench solution containing 100 ng/mL of Internal Standard. The samples are then centrifuged at 3500 rpm for 5 minutes at 10° C. The supernatant (200 μL) is transferred to a final 96 well PCR plate and sealed for analysis by LC/MS/MS.
Concentrations of hydrolyzed active metabolite in the incubation mixtures are determined using LC/MS/MS detection on a Sciex API 4000 quadrapole mass spectrometer with Analyst version 1.4.2, TurbolonSpray, positive ionization, and Selected Reaction Monitoring (SRM). […]
Averages and standard deviations are calculated using Microsoft® Office Excel® 2007. Amount of hydrolysis is determined as a molar percentage of active metabolite formed relative to prodrug concentration added.

hPepT1 = target: T1, hPepT1 (Homo sapiens, UniProt P46059); experiment: In vitro PepT1 GlySar inhibition screen and IC50 determination; format: cell-based; details: PepT1 transiently transfected HeLa cells; for inhibition at 5000 µM: pH 6.0, 3 minutes, read-out: hPepT1 [3H]Gly-Sar uptake inhibition at 5 mM
T1 construct: expressed in transfected cells; host or cells: HeLa cells (ATCC), transient transfection with PepT1 DNA using FuGene6
T1 sequence (P46059 1-708): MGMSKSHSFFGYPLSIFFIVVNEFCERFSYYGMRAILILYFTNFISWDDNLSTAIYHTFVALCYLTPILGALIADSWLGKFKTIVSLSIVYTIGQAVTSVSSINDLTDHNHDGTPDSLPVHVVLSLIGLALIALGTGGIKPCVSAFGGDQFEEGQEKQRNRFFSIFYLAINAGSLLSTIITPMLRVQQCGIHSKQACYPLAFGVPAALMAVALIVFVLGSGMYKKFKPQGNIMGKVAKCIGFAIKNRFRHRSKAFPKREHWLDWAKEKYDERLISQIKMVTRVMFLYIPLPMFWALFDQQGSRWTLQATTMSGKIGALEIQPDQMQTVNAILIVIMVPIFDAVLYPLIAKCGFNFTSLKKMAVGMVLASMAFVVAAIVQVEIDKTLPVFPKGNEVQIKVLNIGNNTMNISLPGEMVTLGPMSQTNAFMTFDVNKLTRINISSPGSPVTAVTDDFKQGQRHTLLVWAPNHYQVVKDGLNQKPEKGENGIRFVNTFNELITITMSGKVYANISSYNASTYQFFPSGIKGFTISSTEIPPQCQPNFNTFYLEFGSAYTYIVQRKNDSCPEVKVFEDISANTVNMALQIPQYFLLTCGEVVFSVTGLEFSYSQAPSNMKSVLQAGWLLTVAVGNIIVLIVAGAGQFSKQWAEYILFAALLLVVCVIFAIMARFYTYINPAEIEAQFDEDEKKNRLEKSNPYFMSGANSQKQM
Experimental: HeLa cells, […], (American Type Culture Collection) are grown in Hyclone Medium (Invitrogen, Cat# SH30243) containing 10% fetal bovine serum (FBS), 0.1 mM non essential amino acids (NEAA), and 100 units/mL penicillin with 100 μg/mL streptomycin at 37° C. in a 5% CO2 humidified atmosphere. The cell line is used for up to 40 passages and then discarded. Frozen cells in 1 ml vials are thawed in water bath for 1-2 minutes and added to 5 mL of cell medium at 37° C. Each of the T-flasks is provided with 8.5 mL of the fresh medium and 1.5 mL of the cell stock. Cells are passaged twice during a week. This is achieved by rinsing the flasks with 10 mL of phosphate buffered saline-ethylene diaminetetra acetic acid (PBS-EDTA), adding 2 mL of trypsin for 2-5 minutes, to detach the cells, and adding 8 mL of fresh medium to inhibit further activity of trypsin. Each new flask receives a combination of 8.5 mL of fresh medium and 1.5 mL of cell stock, in order to obtain 1:6 cell dilution. Cells are incubated at 37° C., until ready for the uptake study.
Cells that are 70-80% confluent in the T-flasks are plated 1 day prior to the transfection procedure. The flask with the cell stock is treated with PBS-EDTA and trypsin to detach the cells, and transfection medium is used from this point. Transfection medium consists of Dulbecco's Modified Eagle Medium (DMEM)+NEAA. To each well, 0.5 mL of the cell mixture is added (1.3×10^5 is the desired cell concentration) and the cells are incubated at 37° C. overnight. Twenty four hours before the assay, cells are transfected with PEPT1. Transfection mixture is prepared by mixing 600 μL of serum free transfection medium, 18 μL of FuGene6 (Roche Diagnostics), and 11 μg of the PepT1 DNA. The transfection reagent-DNA complex is incubated for 20 minutes and 24 μL of the reagent-DNA complex is added to each well.
J. Pharm. Exper Ther. 310:437-445). […] Uptake media consists of 140 mM NaCl, 5.4 mM KCl, 1.8 mM CaCl2, 0.8 mM MgSO4, 5 mM Glucose, 25 mM tris(hydroxymethyl)aminomethane buffer (TRIS). The solution is then brought to pH 6.0 using 2-(N-morpholino)ethanesulfonic acid. The incubation volume is 500 μL and is performed at room temperature for 3 minutes. To stop the uptake at the conclusion of the incubation time, the uptake media is aspirated off of the cell monolayer and 500 μL of ice cold PBS added to the well. The cells are washed 3 times with 500 μL of room temperature PBS without Ca^+2 and Mg^+2. The cells are then lysed with 300 μL of 1% Triton X100 H2O solution. […] A no inhibitor control is established and the percent inhibition of each prodrug is calculated with respect to this control.
The incubation and sampling procedures are exactly the same as the PepT1 screen described above.

[2] = system: male, Sprague-Dawley rats; experiment: Reversal of phencyclidine (PCP)-induced hyperlocomotor activity in rats; format: in vivo, rat; details: Rattus norvegicus; p.o., overnight fasted rats, 4 hours prior to 5 mg/kg PCP
Excerpt: Motor activity is monitored by placing individual male, Sprague-Dawley (Harlan, Indianapolis, Ind.) rats in transparent, plastic shoe-box cages of the dimensions 45×25×20 cm, with 1 cm depth of wood chips as bedding, and a metal grill on top of the cage. Motor monitors (Kinder Scientific) consist of a rectangular rack of 12 photobeams arranged in an 8×4 formation, (or a high density grouping of 22 in a 15×7 pattern) at a height of 5 cm, with a second rack (for measuring rearing behaviors) at a height of 15 cm. The shoe box cage is placed inside of these racks, with the racks on a 3 foot high tabletop in an isolated room. A compound of the invention (active) is dosed (intraperitoneal route) within a range of 0.3-10 mg/kg, 30 minutes prior to a 5 mg/kg challenge dose of phencyclidine (PCP). A compound of the invention (prodrug) is orally dosed within a range of 0.3-30 mg/kg, in overnight fasted rats, 4 hours prior to a 5 mg/kg challenge dose of PCP. On the test day, rats are placed in the test cage and allowed to acclimate for 30 minutes prior to PCP challenge; rats are monitored for an additional 60 minutes following PCP administration.
Data analysis and ED50 calculations are conducted using GraphPad Prism (San Diego, Calif. USA). Power analyses have determined that 8-10 rats per group are needed to have appropriate statistical power for detecting treatment differences (power=0.8). A one-way analysis of variance (ANOVA) with a post-hoc Dunnett's multiple comparison test is conducted on the total 60 minute locomotor activity. ED50 calculations are performed using non-linear regression curve fitting on percent reversal transformed data for each dose.

SMILES | human intestinal hydrolysis relative to Internal Prodrug A [1] [%] | IC50 (hPepT1; 0.0625 to 25 mM, read-out: hPepT1 [3H]Gly-Sar uptake inhibition IC50) [µM] | inhibition at 5000 µM (hPepT1) [%] | ED50 [2] [mg/kg]
CSCC[C@H](N)C(=O)N[C@@]1(C(=O)O)CC2(CC2)[C@H]2[C@H](C(=O)O)[C@H]21.Cl [Example 6, (1S,2S,5R,6S)-2-[[(2S)-2-Amino-4-methylsulfanyl-butanoyl]amino]spiro[bi-cyclo[3.1.0]hexane-4,1′-cyclopropane]-2,6-dicarboxylic acid hydrochloride] | 44 | 250 | 87 | 4.31
Cl.NCC(=O)N[C@@]1(C(=O)O)CC2(CC2)[C@H]2[C@H](C(=O)O)[C@H]21 [Example 7, (1S,2S,5R,6S)-2-[(2-Aminoacetyl)amino]spiro[bi-cyclo[3.1.0]hexane-4,1′-cyclo-propane]-2,6-dicarboxylic acid hydrochloride] | 34 |  | 78 | 
